Species on record: Rattus norvegicus
Assay: DrugMatrix - Regimen: Daily Repeat
Type: toxicity, organism-based, Sprague-Dawley
Set-up: regimen Daily Repeat, gender Male, age 6-8 weeks
Conditions: in vivo, po, route oral GAVAGE, vehicle 100 % WATER; for ABSOLUTE BASOPHIL / ABSOLUTE EOSINOPHIL / ABSOLUTE LYMPHOCYTE / ABSOLUTE MONOCYTE / ABSOLUTE SEGMENTED NEUTROPHIL / BASOPHIL / EOSINOPHIL / ERYTHROCYTE COUNT / HEMATOCRIT / HEMOGLOBIN / LEUKOCYTE COUNT / LYMPHOCYTE / MEAN CORPUSCULAR HEMOGLOBIN / MEAN CORPUSCULAR HEMOGLOBIN CONCENTRATION / MEAN CORPUSCULAR VOLUME / MONOCYTE / NEUTROPHIL / NUCLEATED RED BLOOD CELLS / PLATELET COUNT: tissue Blood; for ALANINE AMINOTRANSFERASE / ALBUMIN / ALKALINE PHOSPHATASE / ASPARTATE AMINOTRANSFERASE / BLOOD UREA NITROGEN / CARBON DIOXIDE / CHLORIDE / CHOLESTEROL / CREATINE PHOSPHOKINASE / CREATININE / GLUCOSE / LACTATE DEHYDROGENASE / LIPASE / PHOSPHORUS / POTASSIUM / SODIUM / TOTAL BILIRUBIN / TOTAL PROTEIN / URIC ACID: tissue Plasma
[1] = 27 mg/kg, 120 h, dose level Low, time 5 day
[2] = 54 mg/kg, 72 h, dose level High, time 3 day
[3] = 54 mg/kg, 120 h, dose level High, time 5 day

Q: What does the source list for `CNNCc1ccc(C(=O)NC(C)C)cc1` [PROCARBAZINE]?
A: ABSOLUTE BASOPHIL [1]: 0 CELLS/uL; ABSOLUTE EOSINOPHIL [1]: 16.67 CELLS/uL; ABSOLUTE LYMPHOCYTE [1]: 6271.33 CELLS/uL; ABSOLUTE MONOCYTE [1]: 33.33 CELLS/uL; ABSOLUTE SEGMENTED NEUTROPHIL [1]: 112 CELLS/uL; BASOPHIL [1]: 0%; EOSINOPHIL [1]: 0.33%; ERYTHROCYTE COUNT [1]: 5.26 x10E6/uL; HEMATOCRIT [1]: 33.2%; HEMOGLOBIN [1]: 13.37 G/DL; LEUKOCYTE COUNT [1]: 6.43 x10E3/uL; LYMPHOCYTE [1]: 97.33%; MEAN CORPUSCULAR HEMOGLOBIN [1]: 25.4 pg; MEAN CORPUSCULAR HEMOGLOBIN CONCENTRATION [1]: 40.27 G/DL; MEAN CORPUSCULAR VOLUME [1]: 63.07 fL; MONOCYTE [1]: 0.67%; NEUTROPHIL [1]: 1.67%; NUCLEATED RED BLOOD CELLS [1]: 0 /100WBC; PLATELET COUNT [1]: 1312.67 x10E3/uL; ALANINE AMINOTRANSFERASE [1]: 59.67 u/L; ALBUMIN [1]: 4.33 G/DL; ALKALINE PHOSPHATASE [1]: 347 u/L; ASPARTATE AMINOTRANSFERASE [1]: 78.67 u/L; BLOOD UREA NITROGEN [1]: 13.67 mg/dL; CARBON DIOXIDE [1]: 33.67 mmol/L; CHLORIDE [1]: 98 MEQ/L; CHOLESTEROL [1]: 69 mg/dL; CREATINE PHOSPHOKINASE [1]: 304.67 u/L; CREATININE [1]: 0.18 mg/dL; GLUCOSE [1]: 140.67 mg/dL; LACTATE DEHYDROGENASE [1]: 152 u/L; LIPASE [1]: 15.33 u/L; PHOSPHORUS [1]: 9.77 mg/dL; POTASSIUM [1]: 5.23 MEQ/L; SODIUM [1]: 144.95 MEQ/L; TOTAL BILIRUBIN [1]: 0.13 mg/dL; TOTAL PROTEIN [1]: 6.07 G/DL; URIC ACID [1]: 0.77 mg/dL; ABSOLUTE BASOPHIL [2]: 0 CELLS/uL; ABSOLUTE EOSINOPHIL [2]: 27.33 CELLS/uL; ABSOLUTE LYMPHOCYTE [2]: 4383.67 CELLS/uL; ABSOLUTE MONOCYTE [2]: 36 CELLS/uL; ABSOLUTE SEGMENTED NEUTROPHIL [2]: 119.67 CELLS/uL; BASOPHIL [2]: 0%; EOSINOPHIL [2]: 0.67%; ERYTHROCYTE COUNT [2]: 5.22 x10E6/uL; HEMATOCRIT [2]: 33.2%; HEMOGLOBIN [2]: 13 G/DL; LEUKOCYTE COUNT [2]: 4.57 x10E3/uL; LYMPHOCYTE [2]: 96%; MEAN CORPUSCULAR HEMOGLOBIN [2]: 24.93 pg; MEAN CORPUSCULAR HEMOGLOBIN CONCENTRATION [2]: 39.17 G/DL; MEAN CORPUSCULAR VOLUME [2]: 63.7 fL; MONOCYTE [2]: 0.67%; NEUTROPHIL [2]: 2.67%; NUCLEATED RED BLOOD CELLS [2]: 0 /100WBC; PLATELET COUNT [2]: 1130.67 x10E3/uL; ALANINE AMINOTRANSFERASE [2]: 49.67 u/L; ALBUMIN [2]: 4.13 G/DL; ALKALINE PHOSPHATASE [2]: 355.67 u/L; ASPARTATE AMINOTRANSFERASE [2]: 81.67 u/L; BLOOD UREA NITROGEN [2]: 13 mg/dL; CARBON DIOXIDE [2]: 33.67 mmol/L; CHLORIDE [2]: 100 MEQ/L; CHOLESTEROL [2]: 90 mg/dL; CREATINE PHOSPHOKINASE [2]: 291.67 u/L; CREATININE [2]: 0.1 mg/dL; GLUCOSE [2]: 146.67 mg/dL; LACTATE DEHYDROGENASE [2]: 99 u/L; LIPASE [2]: 9 u/L; PHOSPHORUS [2]: 9.63 mg/dL; POTASSIUM [2]: 5.66 MEQ/L; SODIUM [2]: 145.5 MEQ/L; TOTAL BILIRUBIN [2]: 0.1 mg/dL; TOTAL PROTEIN [2]: 6 G/DL; URIC ACID [2]: 0.43 mg/dL; ABSOLUTE BASOPHIL [3]: 0 CELLS/uL; ABSOLUTE EOSINOPHIL [3]: 0 CELLS/uL; ABSOLUTE LYMPHOCYTE [3]: 3873.67 CELLS/uL; ABSOLUTE MONOCYTE [3]: 49.33 CELLS/uL; ABSOLUTE SEGMENTED NEUTROPHIL [3]: 210.33 CELLS/uL; BASOPHIL [3]: 0%; EOSINOPHIL [3]: 0%; ERYTHROCYTE COUNT [3]: 5.43 x10E6/uL; HEMATOCRIT [3]: 33.9%; HEMOGLOBIN [3]: 13.27 G/DL; LEUKOCYTE COUNT [3]: 4.13 x10E3/uL; LYMPHOCYTE [3]: 93.33%; MEAN CORPUSCULAR HEMOGLOBIN [3]: 24.43 pg; MEAN CORPUSCULAR HEMOGLOBIN CONCENTRATION [3]: 39.13 G/DL; MEAN CORPUSCULAR VOLUME [3]: 62.37 fL; MONOCYTE [3]: 1%; NEUTROPHIL [3]: 5.67%; NUCLEATED RED BLOOD CELLS [3]: 0 /100WBC; PLATELET COUNT [3]: 1552.67 x10E3/uL; ALANINE AMINOTRANSFERASE [3]: 57.33 u/L; ALBUMIN [3]: 4.33 G/DL; ALKALINE PHOSPHATASE [3]: 297.33 u/L; ASPARTATE AMINOTRANSFERASE [3]: 75.67 u/L; BLOOD UREA NITROGEN [3]: 15.33 mg/dL; CARBON DIOXIDE [3]: 34 mmol/L; CHLORIDE [3]: 97.67 MEQ/L; CHOLESTEROL [3]: 81 mg/dL; CREATINE PHOSPHOKINASE [3]: 273.67 u/L; CREATININE [3]: 0.13 mg/dL; GLUCOSE [3]: 134.67 mg/dL; LACTATE DEHYDROGENASE [3]: 135.33 u/L; LIPASE [3]: 10 u/L; PHOSPHORUS [3]: 9.93 mg/dL; POTASSIUM [3]: 6 MEQ/L; SODIUM [3]: 143.97 MEQ/L; TOTAL BILIRUBIN [3]: 0.17 mg/dL; TOTAL PROTEIN [3]: 6.13 G/DL; URIC ACID [3]: 0.97 mg/dL
